Reference: patent publication US8048862B2, “Macrocyclic inhibitors of hepatitis C virus replication” (priority 2008, dated 2011)
Where two headings read alike, the source gives them in different places.

Assays:
[1] = biological target: NS3/NS4 complexes (Hepatitis C virus genotype 1a, UniProt P27958); assay: NS3/NS4 inhibition activity (IC50); format: biochemical; settings: Table 2, read-out: IC50
Text: NS3-NS4 inhibition activity can be determined using known assay methods. For example, NS3/NS4 complexes may be formed and inhibitory concentrations of test compounds determined as described in U.S. Patent Application Publication Number 2007/0054842 paragraph numbers 1497-1509, which is incorporated herein by reference in its entirety. Similarly, hepatitis C replicon EC50 may be determined using known assay methods such as described in U.S. Patent Application Publication Number 2007/0054842 paragraph numbers 1510-1515. Assays may be conducted at ambient temperature (23° C.) in assay buffer containing 50 mM Tris-HCl, pH 7.5, 15% glycerol, 0.6 mM Lauryldimethylamine Oxide (LDAO), 25 μM NS4A peptide, and 10 mM Dithiothreitol (DTT).

[2] = tested on: hepatitis C replicon; assay: hepatitis C replicon EC50; format: cell-based; settings: Hepatitis C virus
Text: NS3-NS4 inhibition activity can be determined using known assay methods.

[3] = Table 2, hepatitis C replicon, read-out: EC50

NS3/NS4 complexes, sequence (P27958 1027-1657): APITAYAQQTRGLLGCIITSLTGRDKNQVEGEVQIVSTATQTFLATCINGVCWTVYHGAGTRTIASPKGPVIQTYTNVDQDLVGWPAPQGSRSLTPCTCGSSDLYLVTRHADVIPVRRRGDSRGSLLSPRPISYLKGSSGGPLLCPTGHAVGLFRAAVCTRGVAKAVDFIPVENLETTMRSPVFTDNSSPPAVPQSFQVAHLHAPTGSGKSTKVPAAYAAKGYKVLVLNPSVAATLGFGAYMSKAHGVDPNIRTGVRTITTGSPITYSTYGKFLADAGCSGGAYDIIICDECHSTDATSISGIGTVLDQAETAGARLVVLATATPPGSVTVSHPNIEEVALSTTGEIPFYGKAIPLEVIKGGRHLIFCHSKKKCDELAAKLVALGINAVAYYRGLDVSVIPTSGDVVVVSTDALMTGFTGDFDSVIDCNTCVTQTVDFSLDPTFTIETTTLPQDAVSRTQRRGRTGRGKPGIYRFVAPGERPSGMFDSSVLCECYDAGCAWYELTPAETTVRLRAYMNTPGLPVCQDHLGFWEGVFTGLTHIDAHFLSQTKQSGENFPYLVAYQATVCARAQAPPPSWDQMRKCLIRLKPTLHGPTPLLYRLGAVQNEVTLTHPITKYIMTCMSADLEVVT
NS3/NS4 complexes, sequence (P27958 1658-1711): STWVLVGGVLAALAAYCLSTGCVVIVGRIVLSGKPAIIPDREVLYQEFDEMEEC

| Structure (SMILES) | IC50 [1] | EC50 [2, 3] | EC50 ([2]; read-out: EC50 nM) |
| --- | --- | --- | --- |
| CC(C)(C)c1csc(N[C@H]2CCCCC/C=C\[C@@H]3C[C@@]3(C(=O)NS(=O)(=O)C3(C)CC3)NC(=O)[C@@H]3C[C@@H](Oc4nc5ccccc5s4)CN3C2=O)n1 [Compound 231] | < 10 nM | 10 to 75 nM |  |
| CC1(S(=O)(=O)NC(=O)[C@@]23C[C@H]2/C=C\CCCCC[C@H](Nc2cccc(F)c2)C(=O)N2C[C@H](Oc4nc5ccccc5s4)C[C@H]2C(=O)N3)CC1 [Compound 235] | < 10 nM | 10 to 75 nM |  |
| COc1ccc2c(O[C@@H]3C[C@H]4C(=O)N[C@]5(C(=O)NS(=O)(=O)C6(C)CC6)C[C@H]5/C=C\CCCCC[C@H](Nc5cccc(F)c5)C(=O)N4C3)cc(-c3ccccc3)nc2c1 [Compound 242] | < 10 nM | < 10 nM |  |
| CC1(S(=O)(=O)NC(=O)[C@@]23C[C@H]2/C=C\CCCCC[C@H](Nc2cccc(F)c2)C(=O)N2C[C@H](Oc4nccc5ccccc45)C[C@H]2C(=O)N3)CC1 [Compound 243] | < 10 nM | 10 to 75 nM |  |
| COc1cccc(N[C@H]2CCCCC/C=C\[C@@H]3C[C@@]3(C(=O)NS(=O)(=O)C3(C)CC3)NC(=O)[C@@H]3C[C@@H](Oc4nc5ccccc5s4)CN3C2=O)c1 [Compound 244] | < 10 nM | 10 to 75 nM |  |
| CC1(S(=O)(=O)NC(=O)[C@@]23C[C@H]2/C=C\CCCCC[C@H](NCc2ccccc2)C(=O)N2C[C@H](Oc4nc5ccccc5s4)C[C@H]2C(=O)N3)CC1 [Compound 253] | < 10 nM | 10 to 75 nM |  |
| O=C1N[C@]2(C(=O)NOc3ccccc3)C[C@H]2/C=C\CCCCC[C@H](NCc2ccccc2)C(=O)N2C[C@H](Oc3nc4ccccc4s3)C[C@@H]12 [Compound 309] | 75 to 500 nM | > 500 nM |  |
| CC(=O)N(Cc1ccccc1)[C@H]1CCCCC/C=C\[C@@H]2C[C@@]2(C(=O)NS(=O)(=O)C2(C)CC2)NC(=O)[C@@H]2C[C@@H](Oc3nc4ccccc4s3)CN2C1=O [Compound 315] | 10 to 75 nM | > 500 nM |  |
| CC(=O)N(Cc1ccccc1)[C@H]1CCCCC/C=C\[C@@H]2C[C@@]2(C(=O)NS(=O)(=O)C2CC2)NC(=O)[C@@H]2C[C@@H](Oc3nc4ccccc4s3)CN2C1=O [Compound 316] | 10 to 75 nM |  | > 500 nM |
| CS(=O)(=O)N(Cc1ccccc1)[C@H]1CCCCC/C=C\[C@@H]2C[C@@]2(C(=O)NS(=O)(=O)C2CC2)NC(=O)[C@@H]2C[C@@H](Oc3nc4ccccc4s3)CN2C1=O [Compound 317] | 75 to 500 nM | > 500 nM |  |
| CCn1c(O[C@@H]2C[C@H]3C(=O)N[C@]4(C(=O)O)C[C@H]4/C=C\CCCCC[C@H](Nc4cc(F)cc(C(F)(F)F)c4)C(=O)N3C2)nc2ccccc21 [Compound 318] | < 10 nM | > 500 nM |  |
| CCn1c(O[C@@H]2C[C@H]3C(=O)N[C@]4(C(=O)NS(=O)(=O)C5(C)CC5)C[C@H]4/C=C\CCCCC[C@H](Nc4cc(F)cc(C(F)(F)F)c4)C(=O)N3C2)nc2ccccc21 [Compound 319] | < 10 nM | < 10 nM |  |
| CC(C)n1c(O[C@@H]2C[C@H]3C(=O)N[C@]4(C(=O)O)C[C@H]4/C=C\CCCCC[C@H](Nc4cc(F)cc(C(F)(F)F)c4)C(=O)N3C2)nc2ccccc21 [Compound 320] | < 10 nM | < 10 nM |  |
| O=C1N[C@]2(C(=O)O)C[C@H]2/C=C\CCCCC[C@H](Nc2ccc(-c3ccccc3)cc2)C(=O)N2C[C@H](Oc3nc4ccccc4s3)C[C@@H]12 [Compound 325] | 75 to 500 nM | > 500 nM |  |
| CC1(S(=O)(=O)NC(=O)[C@@]23C[C@H]2/C=C\CCCCC[C@H](Nc2ccc(-c4ccccc4)cc2)C(=O)N2C[C@H](Oc4nc5ccccc5s4)C[C@H]2C(=O)N3)CC1 [Compound 326] | < 10 nM | > 500 nM |  |
| CC1(S(=O)(=O)NC(=O)[C@@]23C[C@H]2/C=C\CCCCC[C@H](Nc2cc(F)cc(F)c2)C(=O)N2C[C@H](Oc4nc5ccccc5s4)C[C@H]2C(=O)N3)CC1 [Compound 328] | < 10 nM | 10 to 75 nM |  |
| CC1(S(=O)(=O)NC(=O)[C@@]23C[C@H]2/C=C\CCCCC[C@H](Nc2ccc(C(F)(F)F)cc2)C(=O)N2C[C@H](Oc4nc5ccccc5s4)C[C@H]2C(=O)N3)CC1 [Compound 330] | < 10 nM | 75 to 500 nM |  |
